From US20240043883A1 (Board of Trustees of Michigan State University, priority 2021, published 2024) come the findings set out here.

Data set [1] concerns the target T1, Corynebacterium glutamicum Cg10062 variant E114N, SEQ ID NO: 62 (Corynebacterium glutamicum, UniProt Q8NU77, E115N).
T1 sequence (Q8NU77 with tags, fused parts or gaps E115N): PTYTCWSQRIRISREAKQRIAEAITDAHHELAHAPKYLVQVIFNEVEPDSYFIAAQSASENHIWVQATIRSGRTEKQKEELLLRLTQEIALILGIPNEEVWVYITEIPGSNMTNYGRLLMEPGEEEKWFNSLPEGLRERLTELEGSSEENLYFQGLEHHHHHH
As to the kind of experiment: Effect of NADP(H) on ACA hydration during in vitro 3-HP synthesis with cofactor recycling. As to conditions: 100 mM ACA conversion to 3-HP with 0.001-1 eq NADP^+, 25 °C, pH 8.0. The class given is biochemical. The text has this: (§1) This in vitro pathway developed in this study utilizes the novel Cg10062 (E114N) hydratase-only mutant with two other enzymes, YdfG and PTDH (FIG. 1). YdfG is a NADP^+-dependent 3-hydroxy acid dehydrogenase from E. coli and has previously been used for the in vivo production of 3-HP via the β-alanine pathway. […] For our system to be applied practically, the cost of cofactor is an important consideration. NADPH is an expensive cofactor and in order for the pathway to be an efficient, cost-effective pathway, the use of sub-stoichiometric amounts of co-factor was carried out. […] The formation of 3-HP in these assays were also confirmed using ^1H NMR (FIG. 4A-C).
(§2) All stocks solutions were prepared in 100 mM sodium phosphate pH 8.0. Ethylene glycol (20% w/v) was added to all enzyme stock solutions. […] Each reaction was carried out in duplicate at 25° C. with constant slow mixing on a rocking platform. Reactions were initiated by the addition of ACA. Samples from each reaction were quenched at indicated timepoints for analysis by HPLC and ^1H NMR, as described below.
All samples (100 μL) were quenched and by addition of 5 μL of 18 M sulfuric acid. The final volume was adjusted to 500 μL using 0.01 N sulfuric acid. The samples were prepared for HPLC using Whatman Mini-UniPrep® G2 syringeless filters with a glass microfiber membrane.

The subject of another data set is Cg10062 (E114N). As to the kind of experiment: In vitro 3-HP synthesis from ACA with cofactor recycling (Cg10062 (E114N), YdfG, PTDH), HPLC and 1H NMR. The class given is biochemical, Corynebacterium glutamicum. As to conditions: 100 mM ACA, 0.001-1 eq NADP+; hydration significantly faster at lower NADP+.
From the text: as §1, §2
All samples (100 μL) were quenched and by addition of 5 μL of 18 M sulfuric acid. The final volume was adjusted to 500 μL using 0.01 N sulfuric acid. The samples were prepared for HPLC using Whatman Mini-UniPrep® G2 syringeless filters with a glass microfiber membrane. […]

Data set [2] can be described thus: 1H NMR characterization of YdfG-catalyzed reduction of MSA. Format: biochemical. As to conditions: provided with NADPH as a cofactor. As to the method:
The volume was adjusted to 680 μL with 100 mM sodium phosphate pH 8.0. The reaction was initiated with the addition of Cg10062 (E114D) (20 μL of 3 mg mL^−1 stock). ^1H NMR spectra were obtained after incubating the samples at 25° C. for 1 h. […] Resonances at δ 2.23; (t, 2H) and δ 3.58; (t, 2H) correspond to 3-hydroxypropionate.

The next data set in a line: pH dependence of MmsB. Format: biochemical. As to conditions: in potassium phosphate; 25° C. On the procedure: The pH dependence of MmsB was measured using four different buffer systems: 100 mM potassium phosphate, 50 mM Tris-HCl, 50 mM bis-tris propane and 50 mM HEPES buffers for pH 6.5-8.0, 7.0-9.0, 7.0-9.0 and 7.0-8.0, respectively. The pH dependence was studied using the respective enzyme assay used for kinetic characterization as described previously. All pH studies were carried out in triplicate (1 mL) on a Shimadzu UV2600 spectrophotometer at 25° C. and checked to ensure that the final pH of each assay remained unchanged with the addition of assay components. All stock solutions were prepared in water and the assays were carried out in the respective buffers for each pH.

NADP(H) [listing 1 of 2 here]: the “inhibitory effect on Cg10062 (E114N)” value in data set [1] was “inhibitory effect”.

NADP(H) [listing 2 of 2 here]: in the data set on Cg10062 (E114N), the “effect on Cg10062 (E114N) (hydration of ACA to MSA)” value is given as “inhibitory effect”.

B1: YdfG: NADP+-dependent 3-hydroxy acid dehydrogenase from E. coli, SEQ ID NO: 75 (protein)
chain: MIVLVTGATAGFGECITRRFIQQGHKVIATGRRQERLQELKDELGDNLYIAQLDVRNRAAIEEMLASLPAEWCNIDILVNNAGLALGMEPAHKASVEDWETMIDTNNKGLVYMTRAVLPGMVERNHGHIINIGSTAGSWPYAGGNVYGATKAFVRQFSLNLRTDLHGTAVRVTDIEPGLVGGTEFSNVRFKGDDGKAEKTYQNTVALTPEDVSEAVWWVSTLPAHVNINTLEMMPVTQSYAGLNVHRQENLYFQGLEHHHHHH
modifications: YdfG from Escherichia coli plus TEV protease recognition site and C-terminal His6-tag
Turning to B1, the “conversion of malonate semialdehyde to 3-HP” value in data set [2] is “complete conversion”.

B2: MmsB: 3-hydroxyisobutyrate dehydrogenase from P. putida KT2440, SEQ ID NO: 76 (protein)
chain: MRIAFIGLGNMGAPMARNLIKAGHQLNLFDLNKAVLAELAELGGQISPSPKDAAANSELVITMLPAAAHVRSVYLNEDGVLAGIRPGTPTVDCSTIDPQTARDVSKAAAAKGVDMGDAPVSGGTGGAAAGTLTFMVGASTELFASLKPVLEQMGRNIVHCGEVGTGQIAKICNNLLLGISMIGVSEAMALGNALGIDTKVLAGIINSSTGRCWSSDTYNPWPGIIETAPASRGYTGGFGAELMLKDLGLATEAARQAHQPVILGAVAQQLYQAMSLRGEGGKDFSAIVEGYRKKDENLYFQGLEHHHHHH
modifications: MmsB from Pseudomonas putida KT2440 plus TEV protease recognition site and C-terminal His6-tag
Consider B2, for which the “pH of highest activity” value in the data set “pH dependence of MmsB” is on record as 7.
